Data taken from patent US10435405B2, “Pyrazolopyridine compounds and uses thereof” (Incyte Corporation, priority 2016, dated 2019).
pKi: −log10 of the molar value.

Biological target: HPK1 (Homo sapiens (Human), UniProt Q92918)
Assay: HPK1 Kinase Binding Assay
In short: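 Active HPK1 (added as 4 nM solution) was combined with compound (3-fold, 11-point series) and tracer 222 (18 nM) plus Eu-anti-GST antibody (4 nM) in 50 mM HEPES pH 7.5 with MgCl2 and DTT. After 1 h at 25 °C plates were read. Ki values were derived.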

Chain of HPK1 (Q92918 1-346): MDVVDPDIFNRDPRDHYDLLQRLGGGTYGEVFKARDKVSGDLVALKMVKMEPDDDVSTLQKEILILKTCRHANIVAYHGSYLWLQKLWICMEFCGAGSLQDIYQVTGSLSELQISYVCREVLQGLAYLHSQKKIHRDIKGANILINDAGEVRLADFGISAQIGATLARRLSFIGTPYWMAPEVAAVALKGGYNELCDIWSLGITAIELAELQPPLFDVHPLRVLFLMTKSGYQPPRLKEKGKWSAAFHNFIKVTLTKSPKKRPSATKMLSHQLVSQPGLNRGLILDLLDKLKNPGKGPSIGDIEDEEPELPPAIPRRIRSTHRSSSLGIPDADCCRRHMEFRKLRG

Structure (SMILES) | pKi
COC(=O)N1CCN(c2ccc(C(=O)Nc3n[nH]c4cnc(-c5c(F)cc(CNC(C)C)cc5F)cc34)cc2)CC1 [Example 147, Methyl 4-(4-(5-(2,6-difluoro-4-((isopropylamino)methyl)phenyl)-1H-pyrazolo[3,4-c]pyridin-3-ylcarbamoyl)phenyl)piperazine-1-carboxylate] | ≥ 7.00
Cc1cc(NC(=O)CN2C[C@H]3CC[C@@H]2C3)cc(F)c1-c1cc2c(-c3cnn(C)c3)n[nH]c2cn1 [Example 83, 2-((1R,4S)-2-Azabicyclo[2.2.1]heptan-2-yl)-N-(3-fluoro-5-methyl-4-(3-(1-methyl-1H-pyrazol-4-yl)-1H-pyrazolo[3,4-c]pyridin-5-yl)phenyl)acetamide] | ≥ 7.00
Cc1cc(NC(=O)CN(C)C)cc(Cl)c1-c1cc2c(-c3cnn(C)c3)n[nH]c2cn1 [Example 78, N-(3-Chloro-5-methyl-4-(3-(1-methyl-1H-pyrazol-4-yl)-1H-pyrazolo[3,4-c]pyridin-5-yl)phenyl)-2-(dimethylamino)acetamide] | ≥ 7.00
CCn1cc(-c2n[nH]c3cnc(-c4c(C)cc(C5CCCCN5)cc4F)cc23)cn1 (single isomer, unassigned) [Example 231, 3-(1-Ethyl-1H-pyrazol-4-yl)-5-(2-fluoro-6-methyl-4-(piperidin-2-yl)phenyl)-1H-pyrazolo[3,4-c]pyridine] | ≥ 7.00
COc1cccc(F)c1-c1cc2c(N3CCN(c4ccncc4)CC3)n[nH]c2cn1 [Example 40, 5-(2-Fluoro-6-methoxyphenyl)-3-(4-(pyridin-4-yl)piperazin-1-yl)-1H-pyrazolo[3,4-c]pyridine] | ≥ 7.00
CN(C)c1cc(F)c(-c2cc3c(-c4cnn(C)c4)n[nH]c3cn2)c(F)c1 [Example 63, 3,5-Difluoro-N,N-dimethyl-4-(3-(1-methyl-1H-pyrazol-4-yl)-1H-pyrazolo[3,4-c]pyridin-5-yl)aniline] | ≥ 7.00
COc1cccc(C(=O)Nc2n[nH]c3cnc(-c4c(F)cc(CNC(C)C)cc4F)cc23)c1 [Example 146, N-(5-(2,6-Difluoro-4-((isopropylamino)methyl)phenyl)-1H-pyrazolo[3,4-c]pyridin-3-yl)-3-methoxybenzamide] | ≥ 7.00
CC(C)NCc1cc(F)c(-c2cc3c(-c4cnn(C)c4)n[nH]c3cn2)c(F)c1 [Example 123, N-(3,5-Difluoro-4-(3-(1-methyl-1H-pyrazol-4-yl)-1H-pyrazolo[3,4-c]pyridin-5-yl)benzyl)propan-2-amine] | ≥ 7.00
Cn1cc(-c2n[nH]c3cnc(-c4c(F)ccc(CNC5CC5)c4F)cc23)cn1 [Example 129, N-(2,4-Difluoro-3-(3-(1-methyl-1H-pyrazol-4-yl)-1H-pyrazolo[3,4-c]pyridin-5-yl)benzyl)cyclo propanamine] | ≥ 7.00
